From paper PMC6812009, “Covalent Aurora A regulation by the metabolic integrator coenzyme A” (Redox Biology, 2019)

Legend:
Assay in all cases: Kinase profiling screen (radioactive filter-binding assay)
Format in all cases: biochemical
CHK2 = CHK2 (Homo sapiens, UniProt O96017); settings: 100 μM compound, 20 μM ATP; read-out: Kinase activity, % of activity in the absence of inhibitor
In short: (§1)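 Single-point in vitro screen: 100 μM final of CoA, dpCoA and ADP, run in duplicate against recombinant kinase with a model substrate and optimal ATP.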

DYRK2 = molecular target: T1, DYRK2 (Homo sapiens, UniProt Q92630); settings: 100 μM compound, 50 μM ATP; read-out: Kinase activity, % of activity in the absence of inhibitor
T1 sequence (Q92630 1-601): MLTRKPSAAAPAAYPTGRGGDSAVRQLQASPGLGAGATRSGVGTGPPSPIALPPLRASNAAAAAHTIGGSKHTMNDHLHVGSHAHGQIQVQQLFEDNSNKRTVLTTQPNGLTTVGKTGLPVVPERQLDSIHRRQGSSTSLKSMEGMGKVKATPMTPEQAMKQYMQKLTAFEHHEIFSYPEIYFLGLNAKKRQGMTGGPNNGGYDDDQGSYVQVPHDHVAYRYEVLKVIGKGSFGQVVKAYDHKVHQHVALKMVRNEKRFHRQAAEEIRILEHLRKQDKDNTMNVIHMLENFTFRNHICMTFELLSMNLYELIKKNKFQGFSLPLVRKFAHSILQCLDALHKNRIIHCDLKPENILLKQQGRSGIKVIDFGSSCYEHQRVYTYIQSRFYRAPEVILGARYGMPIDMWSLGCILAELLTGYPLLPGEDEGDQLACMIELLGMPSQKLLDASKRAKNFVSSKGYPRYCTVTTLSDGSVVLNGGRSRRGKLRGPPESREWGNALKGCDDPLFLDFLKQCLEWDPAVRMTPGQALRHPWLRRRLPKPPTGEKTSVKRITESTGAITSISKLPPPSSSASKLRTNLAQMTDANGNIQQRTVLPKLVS
In short: as §1

IRAK4 = molecular target: T2, IRAK4 (Homo sapiens, UniProt Q9NWZ3); settings: 100 μM compound, 20 μM ATP; read-out: Kinase activity, % of activity in the absence of inhibitor
T2 sequence (Q9NWZ3 1-460): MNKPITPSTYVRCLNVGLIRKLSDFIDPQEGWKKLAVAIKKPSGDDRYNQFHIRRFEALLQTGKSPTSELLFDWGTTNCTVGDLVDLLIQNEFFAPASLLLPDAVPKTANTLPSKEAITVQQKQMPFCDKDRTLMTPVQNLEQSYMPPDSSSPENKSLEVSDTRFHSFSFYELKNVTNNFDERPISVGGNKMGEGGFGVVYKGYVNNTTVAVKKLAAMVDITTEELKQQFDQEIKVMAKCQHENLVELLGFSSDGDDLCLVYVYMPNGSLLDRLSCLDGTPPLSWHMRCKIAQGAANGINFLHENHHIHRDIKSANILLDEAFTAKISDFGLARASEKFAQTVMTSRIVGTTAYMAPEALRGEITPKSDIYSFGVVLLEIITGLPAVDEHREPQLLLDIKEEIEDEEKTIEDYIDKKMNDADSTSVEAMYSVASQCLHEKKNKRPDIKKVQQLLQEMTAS
In short: as §1

MAPKAP-K3 = MAPKAP-K3 (Homo sapiens, UniProt Q16644); settings: 100 μM compound, 20 μM ATP; read-out: Kinase activity, % of activity in the absence of inhibitor
In short: as §1

MARK4 = molecular target: T3, MARK4 (Homo sapiens, UniProt Q96L34); settings: 100 μM compound, 50 μM ATP; read-out: Kinase activity, % of activity in the absence of inhibitor
T3 sequence (Q96L34 1-752): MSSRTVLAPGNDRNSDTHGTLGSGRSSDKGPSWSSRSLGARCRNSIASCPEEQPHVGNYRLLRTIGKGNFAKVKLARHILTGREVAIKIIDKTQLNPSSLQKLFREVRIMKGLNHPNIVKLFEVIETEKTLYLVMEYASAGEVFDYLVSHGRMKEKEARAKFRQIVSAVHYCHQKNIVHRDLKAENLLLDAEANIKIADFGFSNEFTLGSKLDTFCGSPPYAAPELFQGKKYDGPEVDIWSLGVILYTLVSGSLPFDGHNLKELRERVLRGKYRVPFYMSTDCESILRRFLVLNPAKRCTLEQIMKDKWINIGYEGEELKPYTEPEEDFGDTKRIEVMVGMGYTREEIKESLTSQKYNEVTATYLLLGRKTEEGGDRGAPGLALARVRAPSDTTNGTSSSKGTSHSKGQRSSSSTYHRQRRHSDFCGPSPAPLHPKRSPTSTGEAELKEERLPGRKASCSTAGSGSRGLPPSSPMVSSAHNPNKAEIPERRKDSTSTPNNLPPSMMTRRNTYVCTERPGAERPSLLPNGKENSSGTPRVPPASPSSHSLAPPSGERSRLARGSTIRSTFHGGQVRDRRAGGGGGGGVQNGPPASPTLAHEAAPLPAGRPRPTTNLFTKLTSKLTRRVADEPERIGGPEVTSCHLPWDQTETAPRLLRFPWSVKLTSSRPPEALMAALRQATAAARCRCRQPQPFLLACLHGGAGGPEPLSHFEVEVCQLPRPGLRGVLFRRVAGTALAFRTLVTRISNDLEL
In short: as §1

MEKK1 = MEKK1 (Homo sapiens, UniProt Q13233); settings: 100 μM compound, 20 μM ATP; read-out: Kinase activity, % of activity in the absence of inhibitor
In short: as §1

MNK2 = MNK2 (Homo sapiens, UniProt Q9HBH9); settings: 100 μM compound, 50 μM ATP; read-out: Kinase activity, % of activity in the absence of inhibitor
In short: as §1

PHKγ1 = PHKγ1 (Homo sapiens, UniProt Q16816); settings: 100 μM compound, 50 μM ATP; read-out: Kinase activity, % of activity in the absence of inhibitor
In short: as §1

S6K1 = S6K1 (Homo sapiens, UniProt P23443); settings: 100 μM compound, 20 μM ATP; read-out: Kinase activity, % of activity in the absence of inhibitor
In short: as §1

SYK = SYK (Homo sapiens, UniProt P43405); settings: 100 μM compound, 20 μM ATP; read-out: Kinase activity, % of activity in the absence of inhibitor
In short: as §1

CHK2, sequence (O96017 whole entry): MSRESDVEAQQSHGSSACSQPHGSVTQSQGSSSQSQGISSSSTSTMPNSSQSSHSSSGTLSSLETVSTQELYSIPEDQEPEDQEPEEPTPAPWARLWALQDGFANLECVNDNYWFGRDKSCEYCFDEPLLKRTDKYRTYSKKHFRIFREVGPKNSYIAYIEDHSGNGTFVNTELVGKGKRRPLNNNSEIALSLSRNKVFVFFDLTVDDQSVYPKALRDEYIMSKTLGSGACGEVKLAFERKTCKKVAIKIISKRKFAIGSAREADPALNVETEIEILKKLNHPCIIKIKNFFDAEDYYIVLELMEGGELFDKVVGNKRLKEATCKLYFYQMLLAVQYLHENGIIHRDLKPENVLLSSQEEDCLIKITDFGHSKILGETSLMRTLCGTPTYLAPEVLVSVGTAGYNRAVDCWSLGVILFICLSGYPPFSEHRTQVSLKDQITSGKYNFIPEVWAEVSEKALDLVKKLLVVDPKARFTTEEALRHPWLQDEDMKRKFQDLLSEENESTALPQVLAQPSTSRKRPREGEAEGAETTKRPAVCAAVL
S6K1, sequence (P23443 whole entry): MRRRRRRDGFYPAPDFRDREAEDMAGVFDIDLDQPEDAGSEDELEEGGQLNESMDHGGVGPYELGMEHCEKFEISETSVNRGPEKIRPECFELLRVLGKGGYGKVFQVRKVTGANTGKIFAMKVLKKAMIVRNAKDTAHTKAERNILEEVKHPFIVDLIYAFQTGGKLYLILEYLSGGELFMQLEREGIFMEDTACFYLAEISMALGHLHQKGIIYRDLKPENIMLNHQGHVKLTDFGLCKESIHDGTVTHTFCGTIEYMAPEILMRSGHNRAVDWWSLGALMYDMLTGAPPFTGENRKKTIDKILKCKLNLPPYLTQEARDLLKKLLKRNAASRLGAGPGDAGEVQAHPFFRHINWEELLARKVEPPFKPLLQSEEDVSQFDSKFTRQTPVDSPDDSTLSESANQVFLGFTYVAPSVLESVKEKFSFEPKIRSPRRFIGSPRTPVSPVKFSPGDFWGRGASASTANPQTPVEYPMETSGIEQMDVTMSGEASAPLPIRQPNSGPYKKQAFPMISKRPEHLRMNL
MNK2, sequence (Q9HBH9 whole entry): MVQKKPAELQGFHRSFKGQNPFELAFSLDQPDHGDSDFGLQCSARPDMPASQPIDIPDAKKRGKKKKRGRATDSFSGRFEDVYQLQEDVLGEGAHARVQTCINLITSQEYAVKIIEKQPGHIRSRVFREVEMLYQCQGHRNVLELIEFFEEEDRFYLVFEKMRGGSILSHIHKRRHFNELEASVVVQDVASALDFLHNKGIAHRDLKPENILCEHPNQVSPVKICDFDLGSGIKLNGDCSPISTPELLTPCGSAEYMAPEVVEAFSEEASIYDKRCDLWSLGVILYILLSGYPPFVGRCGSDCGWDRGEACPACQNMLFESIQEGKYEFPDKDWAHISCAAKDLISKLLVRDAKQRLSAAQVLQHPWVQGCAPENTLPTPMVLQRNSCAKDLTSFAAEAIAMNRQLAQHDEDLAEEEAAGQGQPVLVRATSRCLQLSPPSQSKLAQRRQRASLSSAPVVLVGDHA
PHKγ1, sequence (Q16816 whole entry): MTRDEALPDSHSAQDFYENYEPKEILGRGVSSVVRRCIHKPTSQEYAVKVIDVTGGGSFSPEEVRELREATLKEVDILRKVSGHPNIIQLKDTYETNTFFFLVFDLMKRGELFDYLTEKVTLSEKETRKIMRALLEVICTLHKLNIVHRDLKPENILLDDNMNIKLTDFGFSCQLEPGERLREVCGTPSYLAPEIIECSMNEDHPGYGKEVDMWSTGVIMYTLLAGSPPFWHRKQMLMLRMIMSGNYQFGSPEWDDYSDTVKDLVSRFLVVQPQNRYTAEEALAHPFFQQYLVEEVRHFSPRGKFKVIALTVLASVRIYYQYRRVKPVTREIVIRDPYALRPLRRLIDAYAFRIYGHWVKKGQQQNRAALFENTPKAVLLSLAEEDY
MAPKAP-K3, sequence (Q16644 whole entry): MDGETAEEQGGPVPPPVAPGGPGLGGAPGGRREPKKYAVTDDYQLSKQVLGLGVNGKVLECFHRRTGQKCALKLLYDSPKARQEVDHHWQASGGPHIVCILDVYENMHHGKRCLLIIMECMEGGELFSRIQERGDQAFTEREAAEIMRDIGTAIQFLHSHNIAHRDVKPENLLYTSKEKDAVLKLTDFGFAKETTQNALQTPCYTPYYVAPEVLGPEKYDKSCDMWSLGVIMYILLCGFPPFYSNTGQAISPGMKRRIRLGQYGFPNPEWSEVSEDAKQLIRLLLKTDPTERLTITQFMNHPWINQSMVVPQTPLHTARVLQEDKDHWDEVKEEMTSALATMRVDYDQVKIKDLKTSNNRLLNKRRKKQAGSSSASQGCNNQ
MEKK1, sequence (Q13233 whole entry): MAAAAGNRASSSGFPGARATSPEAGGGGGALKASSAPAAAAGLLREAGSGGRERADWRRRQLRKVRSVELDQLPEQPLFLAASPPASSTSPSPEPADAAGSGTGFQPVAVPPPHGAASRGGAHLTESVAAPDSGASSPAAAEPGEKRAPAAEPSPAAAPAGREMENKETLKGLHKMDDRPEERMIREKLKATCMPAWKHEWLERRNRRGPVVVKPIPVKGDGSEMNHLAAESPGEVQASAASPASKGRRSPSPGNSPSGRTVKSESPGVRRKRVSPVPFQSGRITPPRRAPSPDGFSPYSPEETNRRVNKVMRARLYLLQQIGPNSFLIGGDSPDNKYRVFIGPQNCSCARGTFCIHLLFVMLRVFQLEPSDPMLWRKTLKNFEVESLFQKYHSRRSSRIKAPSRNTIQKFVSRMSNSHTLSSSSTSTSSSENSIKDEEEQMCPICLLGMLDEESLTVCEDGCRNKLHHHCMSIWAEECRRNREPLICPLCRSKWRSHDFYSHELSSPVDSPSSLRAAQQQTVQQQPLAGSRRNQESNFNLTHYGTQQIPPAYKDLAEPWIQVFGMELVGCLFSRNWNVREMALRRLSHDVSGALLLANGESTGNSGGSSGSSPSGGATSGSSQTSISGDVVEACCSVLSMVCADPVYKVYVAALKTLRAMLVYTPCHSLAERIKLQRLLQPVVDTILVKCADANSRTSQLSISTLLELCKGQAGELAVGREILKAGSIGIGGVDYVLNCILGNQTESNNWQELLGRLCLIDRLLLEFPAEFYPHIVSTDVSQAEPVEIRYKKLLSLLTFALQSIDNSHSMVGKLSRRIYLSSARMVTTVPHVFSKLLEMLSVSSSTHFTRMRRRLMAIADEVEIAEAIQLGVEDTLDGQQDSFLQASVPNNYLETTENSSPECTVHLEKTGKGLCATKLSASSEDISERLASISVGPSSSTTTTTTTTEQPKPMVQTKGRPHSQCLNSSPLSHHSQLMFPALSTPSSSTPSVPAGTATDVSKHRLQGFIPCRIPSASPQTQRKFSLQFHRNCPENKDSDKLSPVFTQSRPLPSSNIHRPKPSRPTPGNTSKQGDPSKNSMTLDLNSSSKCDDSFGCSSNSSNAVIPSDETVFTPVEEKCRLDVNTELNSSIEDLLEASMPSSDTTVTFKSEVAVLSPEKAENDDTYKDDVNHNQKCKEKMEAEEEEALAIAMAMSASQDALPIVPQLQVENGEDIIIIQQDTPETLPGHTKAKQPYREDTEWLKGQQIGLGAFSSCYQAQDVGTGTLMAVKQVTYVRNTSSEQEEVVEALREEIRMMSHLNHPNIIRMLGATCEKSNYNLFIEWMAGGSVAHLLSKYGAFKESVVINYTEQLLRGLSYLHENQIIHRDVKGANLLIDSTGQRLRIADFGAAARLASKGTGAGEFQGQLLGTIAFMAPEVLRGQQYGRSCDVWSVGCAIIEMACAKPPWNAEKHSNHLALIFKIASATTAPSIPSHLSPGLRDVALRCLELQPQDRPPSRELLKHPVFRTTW

| Structure (SMILES) | activity at 100 µM (CHK2) | activity at 100 µM (DYRK2) | activity at 100 µM (IRAK4) | activity at 100 µM (MAPKAP-K3) | activity at 100 µM (MARK4) | activity at 100 µM (MEKK1) | activity at 100 µM (MNK2) | activity at 100 µM (PHKγ1) | activity at 100 µM (S6K1) | activity at 100 µM (SYK) |
| --- | --- | --- | --- | --- | --- | --- | --- | --- | --- | --- |
| CC(C)(COP(=O)(O)OP(=O)(O)OC[C@H]1O[C@@H](n2cnc3c(N)ncnc32)[C@H](O)[C@@H]1OP(=O)(O)O)[C@@H](O)C(=O)NCCC(=O)NCCS [CoA, Coenzyme A] | 88.9% | 102% | 89.1% | 98.4% | 87.7% | 96.3% | 138% | 105% | 89.1% | 98.3% |
| CC(C)(COP(=O)(O)OP(=O)(O)OCC1OC(n2cnc3c(N)ncnc32)C(O)C1O)C(O)C(=O)NCCC(=O)NCCS (stereo not drawn) [dpCoA, dephospho-CoA] | 56% | 77% | 74.8% | 63% | 86.6% | 106% | 87.1% | 90.9% | 30.5% | 106% |
| Nc1ncnc2c1ncn2C1OC(COP(=O)(O)OP(=O)(O)O)C(O)C1O (stereo not drawn) [ADP] | 43.2% | 42.4% | 82.1% | 25.7% | 49.1% | 68.1% | 41.2% | 75.6% | 35.5% | 70.9% |
